Assay results from PubChem BioAssay (NCI).
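The compound was tested at five concentrations on cells cultured in 96-well plates, with a 48-hour exposure period. GI50 = concentration required for 50% inhibition of growth. TGI is the concentration that stops growth completely.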

Assays:
Test in all cases: growth of human tumour cells (NCI), 48 h
UACC-62 melanoma = test system: UACC-62 melanoma
RPMI-8226 leukemia = test system: RPMI-8226 leukemia
SF-539 CNS = test system: SF-539 CNS
IGROV1 ovarian = test system: IGROV1 ovarian
SW-620 colon = test system: SW-620 colon
KM12 colon = test system: KM12 colon
NCI-H460 lung = test system: NCI-H460 lung
HOP-92 NSCLC = test system: HOP-92 NSCLC
U251 CNS = test system: U251 CNS
T-47D breast = test system: T-47D breast

Compound | TGI (UACC-62 melanoma) | TGI (RPMI-8226 leukemia) | TGI (SF-539 CNS) | TGI (IGROV1 ovarian) | TGI (SW-620 colon) | TGI (KM12 colon) | TGI (NCI-H460 lung) | TGI (HOP-92 NSCLC) | TGI (U251 CNS) | GI50 (HOP-92 NSCLC) | GI50 (RPMI-8226 leukemia) | GI50 (SF-539 CNS) | GI50 (U251 CNS) | GI50 (SW-620 colon) | GI50 (KM12 colon) | GI50 (NCI-H460 lung) | TGI (T-47D breast) | GI50 (UACC-62 melanoma) | GI50 (IGROV1 ovarian) | GI50 (T-47D breast)
Oc1c(C(Nc2cccc3cccnc23)c2ccccc2)ccc2cccnc12 (centres undefined) | > 100 µM | > 100 µM | 39 µM | 39.9 µM | > 100 µM | > 100 µM | > 100 µM |  |  |  |  |  |  |  |  |  |  |  |  | 
O=[N+]([O-])c1cc(C(F)(F)F)cc([N+](=O)[O-])c1CCl | 1.21 µM | 3.49 µM | 9.23 µM | 6.09 µM | 1.63 µM | 4.92 µM | 21.4 µM | 19.1 µM | 14.2 µM |  |  |  |  |  |  |  |  |  |  | 
COc1cnc2c(c1)C(=O)c1c-2n(CCCn2ccnc2)c(=O)c2cc(F)ccc12 |  | 0.248 µM | 0.195 µM |  | 1.01 µM | 1.57 µM | 0.133 µM | 3.11 µM | 0.179 µM | 0.154 µM | < 0.01 µM | 0.0245 µM | < 0.01 µM | 0.0221 µM | 0.0589 µM | < 0.01 µM |  |  |  | 
Cc1ccc(S(=O)(=O)N/N=C/c2c(O)ccc3ccccc23)cc1 | 49.4 µM | > 100 µM | 41.8 µM | 84.5 µM | > 100 µM | 44.9 µM | > 100 µM |  | > 100 µM |  |  |  |  |  |  |  | > 100 µM |  |  | 
CCC[CH2][Sn]1([CH2]CCC)[O]C(=O)c2cccnc2[O]1 | 3.94 µM | 6.34 µM | 4 µM | 18.4 µM | 3.6 µM | 17.6 µM | 26 µM | 4.63 µM | 3.79 µM | 1.01 µM | 1.74 µM | 1.87 µM | 1.89 µM | 1.48 µM | 4.6 µM | 13.3 µM |  | 1.8 µM | 4.57 µM | 
Oc1ccccc1/C=C/c1csnn1 | > 100 µM | > 100 µM | > 100 µM | > 100 µM | > 100 µM | > 100 µM | > 100 µM | > 100 µM | > 100 µM |  |  |  |  |  |  |  |  |  |  | 
OC(c1ccccc1)(c1ccccc1)c1ccncc1 | > 100 µM | > 100 µM | > 100 µM | > 100 µM | > 100 µM | > 100 µM | > 100 µM | > 100 µM | > 100 µM |  |  |  |  |  |  |  |  |  |  | 
CCOC(=O)N1CCN(C=S)CC1 | > 100 µM |  | > 100 µM | > 100 µM | > 100 µM | > 100 µM | > 100 µM |  | > 100 µM |  |  |  |  |  |  |  |  |  |  | 
CP1(=O)CCCCC1 | > 100 µM | > 100 µM | > 100 µM | > 100 µM | > 100 µM | > 100 µM | > 100 µM | > 100 µM | > 100 µM |  |  |  |  |  |  |  |  |  |  | 
C(#Cc1ccccc1C#Cc1cccs1)c1cccs1 | > 100 µM |  | > 100 µM | > 100 µM | > 100 µM | > 100 µM | > 100 µM |  | > 100 µM |  |  | 71.5 µM | 66.8 µM | 42 µM | 29.5 µM | 47.4 µM | > 100 µM | 43.4 µM | > 100 µM | 30.2 µM
CC(C)C1CC[C@@H](C)C[C@@]1(O)CC(N)=O (some centres undefined) | > 100 µM | > 100 µM | > 100 µM | > 100 µM | > 100 µM | > 100 µM | > 100 µM |  | > 100 µM |  |  |  |  |  |  |  |  |  |  | 
CN(C)CC/C(=N\Nc1ccc([N+](=O)[O-])cc1)c1ccccc1 | 25.9 µM | 30.6 µM | 20.3 µM | 24.9 µM | 26.5 µM | 22.3 µM | 21.3 µM |  | 25.5 µM |  |  |  |  |  |  |  |  |  |  | 
CCS(CC)(CC)CC1CCCC2=CCC(P(=O)(c3ccccc3)c3ccccc3)CC21 (centres undefined) | 13.5 µM |  | 27.3 µM | 28.1 µM | 31.5 µM | 30.6 µM | 24.8 µM | 16.4 µM | 23.1 µM |  |  |  |  |  |  |  |  |  |  | 
O=C(O)C(SC(=S)c1ccc(C(=S)SC(C(=O)O)c2ccccc2)cc1)c1ccccc1 (centres undefined) | > 100 µM | > 100 µM | > 100 µM | > 100 µM | > 100 µM | > 100 µM | > 100 µM | > 100 µM | > 100 µM |  |  |  |  |  |  |  |  |  |  | 
COC1CC(OS(=O)(=O)c2ccc([N+](=O)[O-])cc2)C(OC(=O)c2ccccc2)C(C)O1 (centres undefined) | > 100 µM | > 100 µM | > 100 µM | > 100 µM | > 100 µM | > 100 µM | > 100 µM | > 100 µM | > 100 µM |  |  |  |  |  |  |  |  |  |  | 
Cc1ccc2nc(NC(=O)C(=O)C(C#N)c3nc4ccccc4s3)sc2c1 (centres undefined) | > 100 µM | 64.8 µM | 40.7 µM | 51.8 µM | > 100 µM | > 100 µM | > 100 µM | 75.3 µM | > 100 µM |  |  |  |  |  |  |  |  |  |  | 

Compound | TGI (UACC-62 melanoma) | TGI (RPMI-8226 leukemia) | TGI (SF-539 CNS) | TGI (IGROV1 ovarian) | TGI (SW-620 colon) | TGI (KM12 colon) | TGI (NCI-H460 lung) | TGI (HOP-92 NSCLC) | TGI (U251 CNS) | GI50 (HOP-92 NSCLC) | GI50 (RPMI-8226 leukemia) | GI50 (SF-539 CNS) | GI50 (U251 CNS) | GI50 (SW-620 colon) | GI50 (KM12 colon) | GI50 (NCI-H460 lung) | TGI (T-47D breast) | GI50 (UACC-62 melanoma) | GI50 (IGROV1 ovarian) | GI50 (T-47D breast)
CCOc1ccccc1N1C(=O)C(=O)C(c2nc3ccccc3o2)C(=O)C1=O | > 100 µM | > 100 µM | > 100 µM | > 100 µM | > 100 µM |  |  | > 100 µM | > 100 µM |  |  |  |  |  |  |  |  |  |  | 
COc1cc(/C=C2/C(=O)N(C(=O)OCC(C)C)C(Cc3cc(OC)c(OC)c(C)c3OC)C(=O)N2Cc2ccccc2)c(OC)c(C)c1OC (centres undefined) | > 100 µM | > 100 µM | > 100 µM | > 100 µM | > 100 µM | > 100 µM | > 100 µM | > 100 µM | > 100 µM |  |  |  |  |  |  |  |  |  |  | 
CN1C(=Nc2ccccc2)SC1=Nc1ccccc1 | > 100 µM | > 100 µM | > 100 µM | > 100 µM | > 100 µM | > 100 µM | > 100 µM | 58.5 µM | > 100 µM |  |  |  |  |  |  |  |  |  |  | 
CCc1cc(C(=O)OC)cn1C(=N)c1ccc(Cl)cc1 | > 100 µM | > 100 µM | > 100 µM | > 100 µM | > 100 µM | > 100 µM | > 100 µM | > 100 µM | > 100 µM |  |  |  |  |  |  |  |  |  |  | 
CCN(CC)c1c(C(=O)/C=C/c2ccc(OC)cc2)c(-c2ccccc2)nn(C)c1=O | 28.5 µM |  | 45.9 µM | 68.8 µM | 98.4 µM | 37.1 µM | 35.4 µM | 43.4 µM | 32.7 µM |  |  |  |  |  |  |  |  |  |  | 
COc1ccc2n[se]nc2c1 | > 100 µM | > 100 µM | 54.3 µM | > 100 µM | > 100 µM | > 100 µM |  |  | > 100 µM |  |  |  |  |  |  |  |  |  |  | 
C=C(C)C(=O)O[C@H]1CC(=C)[C@@H]2C[C@H](O)[C@](O)(CCl)[C@@H]2[C@H]2OC(=O)C(=C)[C@@H]21 | 11.4 µM | 4.78 µM | 4.35 µM | 10.4 µM | 4.57 µM | 3.99 µM | 28.2 µM | 6.33 µM | 6.14 µM | 2.69 µM | 1.43 µM | 1.98 µM | 2.47 µM | 2.08 µM | 1.8 µM | 10.2 µM |  | 3.26 µM | 2.71 µM | 
COc1ccc(-c2c[nH]c(C(=O)O)c2-c2cc(OC)c(OC)c(OC)c2)cc1 | > 100 µM | > 100 µM | 15.6 µM | > 100 µM | > 100 µM | > 100 µM | > 100 µM | > 100 µM | > 100 µM | 5.68 µM | 4.24 µM | 3.08 µM | 4.99 µM | 3.94 µM | 4.59 µM | 3.8 µM |  | 4.13 µM | 5.5 µM | 
Cn1cc(C(=O)NCCC(=N)N)cc1NC(=O)C1=[N+](C)C=C(NC(=O)c2cccc(C(=O)NC3=CC(C(=O)Nc4cc(C(=O)NCCC(=N)N)cn4C)=[N+](C)C3)c2)C1 | > 100 µM | > 100 µM | > 100 µM | > 100 µM | > 100 µM | > 100 µM | > 100 µM | > 100 µM | > 100 µM |  |  |  |  |  |  |  |  |  |  | 
Clc1ccc(C2SCc3nc4ccccc4n32)c(Cl)c1 (centres undefined) | 32 µM | 41.1 µM | 31.4 µM | 31.5 µM | 22 µM | 29.4 µM | 34.7 µM | 11 µM | 32 µM |  |  |  |  |  |  |  |  |  |  | 
O=C([CH-]C(=O)c1ccccc1)c1ccccc1.O=C([CH-]C(=O)c1ccccc1)c1ccccc1.[La+3].[OH-].[OH3+] | 44.7 µM | 49.9 µM |  | > 100 µM | > 100 µM |  | > 100 µM | 38.9 µM | > 100 µM | 15.3 µM | 11.1 µM |  | 15.2 µM | 9.82 µM |  | 8.66 µM |  | 14 µM | 25.8 µM | 
CCOc1ccc2c(c1)[n+]([O-])c(-c1ccc(Cl)cc1)c(N)[n+]2[O-] |  | > 100 µM | > 100 µM | > 100 µM | > 100 µM | > 100 µM | > 100 µM | > 100 µM | > 100 µM |  |  |  |  |  |  |  |  |  |  | 
Cc1ccc(S(=O)(=O)OC2CSS(=O)CC2OS(=O)(=O)c2ccc(C)cc2)cc1 (centres undefined) | 29.2 µM | 27.6 µM | 29.2 µM | 32.9 µM | 18.9 µM | 31.3 µM | 46.4 µM | 25.9 µM | 28.1 µM |  |  |  |  |  |  |  |  |  |  | 
Cc1cccc(C)c1NC(=O)C(C#N)C1=C(Cl)C(=O)c2ccccc2C1=O (centres undefined) | 33.4 µM | 53.6 µM | 48.1 µM | 31.8 µM | 34.3 µM | 34.5 µM | 55.4 µM | 22.4 µM | 42.7 µM |  |  |  |  |  |  |  |  |  |  | 
Cc1cc(=O)n(-c2ccccc2C)c(C)n1 | > 100 µM |  | > 100 µM | > 100 µM | > 100 µM | > 100 µM | > 100 µM | > 100 µM | > 100 µM |  |  |  |  |  |  |  |  |  |  | 
